{"source": "patent US7179253B2", "about": "“Method of tattoo removal” (3M Innovative Properties Company, priority 2003, dated 2007)", "origin": "cited, not measured here", "system": "tattoo ink pigments in tattooed regions", "conditions": "guinea pigs; topical 5% cream started within six hours of tattoo application, continued for seven days"}
{"smiles": "CC(C)Cn1cnc2c(N)nc3ccccc3c21", "note": "[imiquimod, 1-(2-methylpropyl)-1H-imidazo[4,5-c]quinolin-4-amine]", "values": [{"measurement": "visible tattoo pigment in the tattooed regions at the conclusion of the treatment period", "value": "no pigment of any color was visible"}]}
